The values below come from patent US6730326B2, “Thermodynamically stable modification of 1-(4-carbazolyl-oxy-3[2-(2-methoxyphenoxy)-ethylamino]-2-propanol process for its preparation and pharmaceutical compositions containing it” (Roche Diagnostics GmbH, priority 1997, dated 2004).

The series is classed as physicochemical. On the procedure:
A 1:1 mixture of Form I and Form II was suspended in isopropanol and agitated with a magnetic stirrer for 18 h in a tightly sealed glass […]. […] Subsequently the sample was filtered with a micro glass filter funnel (G3), dried and evacuated.

On to `COc1ccccc1OCCNCC(O)COc1cccc2[nH]c3ccccc3c12` (racemic) [Form I, (±)1-(4-carbazolyloxy)-3-[2-(2-methoxyphenoxy)ethylamno]-2-propanole], for which the “thermodynamic stability of the modification” value is recorded as “thermodynamically stable form”.
